The target of assay [1] is Methionine--tRNA ligase (Staphylococcus aureus subsp. aureus MW2, UniProt Q8NY00). Nature of the assay: Inhibitory concentration against Staphylococcus aureus methionyl tRNA synthetase.
Assay [2] has as its system Staphylococcus aureus. The assay is described as follows: Antibacterial activity against Staphylococcus aureus Oxford. The class given is functional.
Assay [3] concerns Enterococcus faecalis. The assay is described as follows: Antibacterial activity against Enterococcus faecalis 1. The class given is functional.
Assay [4] relates to Enterococcus faecium. The assay is described as follows: Concentration required to inhibit 90% population of Enterococcus faecium. It is filed as functional.
The test system of assay [5] is Enterococcus faecalis. Nature of the assay: Concentration required to inhibit 90% population of Enterococcus faecalis. It is filed as functional.
For assay [6], the system named is Staphylococcus aureus. Nature of the assay: Concentration required to inhibit 90% population of Staphylococcus aureus. The class given is functional.
Assay [7] has as its system Staphylococcus epidermidis. The assay is described as follows: Concentration required to inhibit 90% population of Staphylococcus epidermidis. The class given is functional.

SMILES strings stand for the structures. ≈ marks a conversion by molar mass, not a printed value.

As usually defined, the IC50 is the point on the concentration scale where inhibition reaches its midpoint. The low end stands for greater potency, the high end for weaker potency. A word on the MIC: it is the lowest concentration found to suppress growth. Low values mean greater potency, high ones weaker potency. By MIC90 is commonly meant an inhibitory concentration at the 90% level, which refers to growth in some studies and to a panel of isolates in others. A lower MIC90 goes with higher susceptibility.

Methionine--tRNA ligase, sequence (Q8NY00 whole entry): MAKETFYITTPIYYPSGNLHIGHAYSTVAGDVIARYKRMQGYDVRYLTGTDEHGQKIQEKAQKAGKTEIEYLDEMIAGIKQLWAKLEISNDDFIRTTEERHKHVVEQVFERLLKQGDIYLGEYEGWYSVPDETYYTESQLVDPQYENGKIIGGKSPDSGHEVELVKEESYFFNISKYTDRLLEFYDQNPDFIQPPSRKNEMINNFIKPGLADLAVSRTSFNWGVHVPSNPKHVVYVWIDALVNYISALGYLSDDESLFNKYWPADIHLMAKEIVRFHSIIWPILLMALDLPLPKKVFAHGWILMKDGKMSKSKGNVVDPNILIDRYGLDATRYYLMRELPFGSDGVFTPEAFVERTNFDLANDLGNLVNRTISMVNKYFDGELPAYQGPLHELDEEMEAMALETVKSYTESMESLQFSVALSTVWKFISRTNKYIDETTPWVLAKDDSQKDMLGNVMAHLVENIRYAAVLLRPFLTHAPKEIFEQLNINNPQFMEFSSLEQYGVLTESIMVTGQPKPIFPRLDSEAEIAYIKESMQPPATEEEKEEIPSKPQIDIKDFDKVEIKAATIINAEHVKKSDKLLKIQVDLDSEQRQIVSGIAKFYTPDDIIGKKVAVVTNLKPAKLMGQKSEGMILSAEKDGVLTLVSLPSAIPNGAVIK

In assay [1], `Oc1cc(NCCCNCc2cc(Cl)cc(Cl)c2Cl)nc2ccccc12` showed an IC50 of less than 3 nM.

Regarding `Oc1cc(NCCCNCc2cc(Br)cc(Br)c2)nc2ccccc12`, the IC50 in assay [1] is less than 3 nM. The minimal inhibitory concentration (MIC) in assay [2] was 0.25 µg/mL (≈ 0.537 µM); in assay [3], not above 0.06 µg/mL.

On to `Oc1nc(NCCCNC2CCNc3c(Cl)cc(Br)cc32)nc2ccsc12` (centres undefined), for which, in assay [1], the IC50 was less than 3 nM. Further, the MIC in assay [2] and in assay [3] was not above 0.06 µg/mL each time.

Compound `CCOc1c(Br)cc(Br)cc1CNCCCNc1nc2ccccc2[nH]1` came in with an IC50 in assay [1] of 17 nM. Also, the values for the MIC in assay [2] and in assay [3] were 1 µg/mL (≈ 2.07 µM) and 0.25 µg/mL (≈ 0.518 µM), respectively.

`CCOc1c(Cl)cc(Cl)cc1CNCCCNc1nc(O)c2sccc2n1` returned a half-maximal inhibitory concentration (IC50) in assay [1] of less than 3 nM. For the same compound, the MIC in assay [2] was found to be 0.25 µg/mL (≈ 0.585 µM); in assay [3], 0.13 µg/mL (≈ 0.304 µM).

`CCOc1c(Br)cc(Cl)cc1CNCCCNc1nc(O)c2sccc2n1` showed an IC50 in assay [1] of less than 3 nM. For the same compound, the MIC in assay [2] and in assay [3] was 0.13 µg/mL (≈ 0.276 µM) in each case.

`Clc1cc(Cl)c(Cl)c(CNCCCNc2ccc3ccccc3n2)c1` displayed an IC50 in assay [1] of 100 nM.

In assay [1], `CCc1cc(I)c2c(c1)C(NCCCNc1nc(O)c3sccc3n1)CCN2` (centres undefined) yielded an IC50 of less than 3 nM. The figures for the MIC in assay [2] and in assay [3] were not above 0.06 µg/mL and 0.5 µg/mL (≈ 0.982 µM), respectively.

Turning to `Brc1cc(Br)c2c(c1)C(NCCCNc1nc3ncccc3[nH]1)CCN2` (centres undefined), the MIC90 amounted to 0.03 µg/mL (≈ 0.0625 µM) in assay [4], 0.06 µg/mL (≈ 0.125 µM) in assay [5], 1 µg/mL (≈ 2.08 µM) in assay [6] and 0.5 µg/mL (≈ 1.04 µM) in assay [7]. In assay [1], this compound yielded an IC50 of 11 nM. The MIC in assay [2] and in assay [3] was not above 0.06 µg/mL throughout.

In assay [1], `Brc1cc(Br)cc(CNCCCNc2nc3ccccc3[nH]2)c1` showed an IC50 of 29 nM. In addition, the values for the MIC in assay [2] and in assay [3] were 1 µg/mL (≈ 2.28 µM) and 0.13 µg/mL (≈ 0.297 µM), respectively.

The compound `Oc1cc(NCCCNCc2cc(Cl)cc(Cl)c2Cl)cc2ccccc12` yielded an IC50 in assay [1] of 1800 nM.

In the case of `CCOc1c(Br)cc(Br)cc1CNCCCNc1nc2ccccc2c(=O)[nH]1`, the IC50 in assay [1] worked out at 9.7 nM. The MIC in assay [2] is 0.13 µg/mL (≈ 0.255 µM); in assay [3], not above 0.06 µg/mL.

`Oc1nc(NCCCNCc2cc(Br)cc(Br)c2)nc2c1CCC2` gave an IC50 in assay [1] of 580 nM. The MIC in assay [2] and in assay [3] was more than 64 µg/mL throughout.

For the compound `O=C(NCCCNCc1cc(Br)cc(Br)c1)Nc1ccccc1`, the IC50 in assay [1] was determined as 330 nM. For the same compound, the MIC was more than 64 µg/mL in assay [2] and 8 µg/mL (≈ 18.1 µM) in assay [3].

In assay [1], `CCOc1c(Br)cc(Br)cc1CNCCCNc1nc(O)c2sccc2n1` displayed an IC50 of 4.9 nM. Further, the results for the MIC in assay [2] and in assay [3] were 0.13 µg/mL (≈ 0.252 µM) and not above 0.06 µg/mL, respectively.

For the compound `CCc1cc(I)c2c(c1)C(NCCCNc1nc3ccc[nH]c-3n1)CCN2` (centres undefined), the IC50 in assay [1] was 18 nM. For the same compound, the minimal inhibitory concentration (MIC) in assay [2] stood at 0.25 µg/mL (≈ 0.525 µM); in assay [3], 1 µg/mL (≈ 2.1 µM).

In assay [1], `Brc1cc(Br)cc(CNCCCNc2nc3ccc[nH]c-3n2)c1` yielded a half-maximal inhibitory concentration (IC50) of 5 nM. In addition, the MIC in assay [2] is 0.5 µg/mL (≈ 1.14 µM); in assay [3] it was 0.25 µg/mL (≈ 0.569 µM).

With `CCOc1c(Cl)cc(Cl)cc1CNCCCNc1nc(O)c2ccccc2n1`, the IC50 in assay [1] is less than 3 nM. For the same compound, the results for the MIC in assay [2] and in assay [3] were 0.13 µg/mL (≈ 0.309 µM) and not above 0.06 µg/mL, respectively.

The compound `CCc1cc(I)c2c(c1)C(NCCCNc1nc3ccccc3[nH]1)CCN2` (centres undefined) gave an IC50 in assay [1] of 16 nM. In addition, the figures for the MIC in assay [2] and in assay [3] were 0.5 µg/mL (≈ 1.05 µM) and 1 µg/mL (≈ 2.1 µM), respectively.

`CCOc1c(Br)cc(OC)cc1CNCCCNc1nc2ccccc2[nH]1` gave an IC50 in assay [1] of 17 nM. For the same compound, the results for the MIC in assay [2] and in assay [3] were 1 µg/mL (≈ 2.31 µM) and 0.13 µg/mL (≈ 0.3 µM), respectively.

In assay [1], `N#Cc1c(NCCCNCc2cc(Br)cc(Br)c2)[nH]c2ccccc12` had a half-inhibitory concentration (IC50) of 54 nM. In addition, the MIC in assay [2] is 0.5 µg/mL (≈ 1.08 µM); in assay [3] it was 0.25 µg/mL (≈ 0.541 µM).

For `Brc1cc(Br)c2c(c1)[C@H](NCCCNc1nc3ncccc3[nH]1)CCN2`, in assay [1], the IC50 was found to be 6.3 nM. Besides, the MIC in assay [2] and in assay [3] was not above 0.06 µg/mL throughout.

With `O=c1cc(NCCCNCc2cc(Cl)cc(Cl)c2Cl)oc2ccccc12`, the IC50 in assay [1] is 1000 nM.

For the compound `O=c1nc(NCCCNCc2cc(Br)cc(Br)c2)[nH]c2ccsc12`, in assay [1], the IC50 came to 3.9 nM. Besides, the MIC in assay [2] was 0.5 µg/mL (≈ 1.06 µM); in assay [3], not above 0.06 µg/mL.

The compound `CCOc1c(Br)cc(Cl)cc1CNCCCNc1nc(O)c2ccccc2n1` registered a 50% inhibitory concentration (IC50) in assay [1] of less than 3 nM. In addition, the MIC in assay [2] was 0.13 µg/mL (≈ 0.279 µM); in assay [3] it was not above 0.06 µg/mL.

For `Oc1cc(SCCCNCc2ccc(Cl)c(Cl)c2)nc2ccccc12`, the half-maximal inhibitory concentration (IC50) in assay [1] amounted to 680 nM. In assay [2], this compound returned an MIC of more than 64 µg/mL.

Regarding `Brc1cc(Br)c2c(c1)C(NCCCNc1nc3ccccc3[nH]1)CCN2` (centres undefined), the concentration for half-maximal inhibition (IC50) in assay [1] was 13 nM. Further, the MIC in assay [2] is 0.25 µg/mL (≈ 0.522 µM); in assay [3] it was not above 0.06 µg/mL.

Turning to `Oc1nc(NCCCNCc2cc(Br)cc(Br)c2)nc2sccc12`, the IC50 in assay [1] stood at 150 nM. Besides, the MIC is more than 64 µg/mL in assay [2] and 32 µg/mL (≈ 67.8 µM) in assay [3].

`Oc1cc(-c2ccccc2)nc(NCCCNCc2cc(Br)cc(Br)c2)n1` gave an IC50 in assay [1] of more than 1000 nM. The MIC in assay [2] and in assay [3] was more than 64 µg/mL each time.

For the compound `Oc1nc(NCCCNC2CCNc3c(Br)cc(Br)cc32)nc2ccsc12` (centres undefined), in assay [1], the IC50 was determined as 13 nM. Besides, the minimum inhibitory concentration (MIC) in assay [2] and in assay [3] was not above 0.06 µg/mL each time.

`CCOc1c(Br)cc(OC)cc1CNCCCNc1nc(O)c2sccc2n1`: in assay [1], the IC50 turned out to be 3.3 nM. Besides, the MIC is 0.25 µg/mL (≈ 0.535 µM) in assay [2] and not above 0.06 µg/mL in assay [3].

In assay [1], `CCOc1c(Br)cc(OC)cc1CNCCCNc1nc(O)c2ccccc2n1` showed an IC50 of 7 nM. The MIC is 0.13 µg/mL (≈ 0.282 µM) in assay [2] and not above 0.06 µg/mL in assay [3].

Turning to `Oc1cc(OCCCNCc2ccc(Cl)c(Cl)c2)nc2ccccc12`, the IC50 in assay [1] stood at 38 nM. For the same compound, it took 32 µg/mL (≈ 84.8 µM) to inhibit growth in assay [2] (MIC).

Consider `Oc1cc(NCCCNCc2cc(Br)cc(Br)c2)nc2sccc12`, for which half-maximal inhibition in assay [1] (IC50) was put at 6.2 nM. Moreover, the results for the MIC in assay [2] and in assay [3] were 0.25 µg/mL (≈ 0.531 µM) and not above 0.06 µg/mL, respectively.

In assay [1], `CCOc1c(Cl)cc(Cl)cc1CNCCCNc1nc2ccccc2[nH]1` yielded an IC50 of less than 3 nM. The values for the MIC in assay [2] and in assay [3] were 2 µg/mL (≈ 5.08 µM) and 0.5 µg/mL (≈ 1.27 µM), respectively.

In assay [1], `Oc1cc(NCCCNCc2cc(Br)cc(Br)c2)nc2ccsc12` displayed an IC50 of 4 nM. For the same compound, the MIC in assay [2] was 0.13 µg/mL (≈ 0.276 µM); in assay [3], not above 0.06 µg/mL.

The compound `CCOc1c(Br)cc(Cl)cc1CNCCCNc1nc2ccccc2[nH]1` had an IC50 in assay [1] of 3.8 nM. Further, the MIC in assay [2] was 1 µg/mL (≈ 2.28 µM); in assay [3] it was 0.5 µg/mL (≈ 1.14 µM).

`Oc1nc(NCCCNCc2cc(Br)cc(Br)c2)nc2ccccc12` had a half-inhibitory concentration (IC50) in assay [1] of 8.1 nM. The MIC is 0.25 µg/mL (≈ 0.536 µM) in assay [2] and not above 0.06 µg/mL in assay [3].

Regarding `CCc1cc(I)c2c(c1)C(NCCCNc1nc(O)c3ccccc3n1)CCN2` (centres undefined), in assay [1], 17 nM corresponded to half-maximal inhibition (IC50). The MIC in assay [2] is not above 0.06 µg/mL; in assay [3], 0.25 µg/mL (≈ 0.497 µM).

As for `Oc1nc(NCCCNC2CCNc3c(Cl)cc(Br)cc32)nc2ccccc12` (centres undefined), in assay [1], 8.2 nM corresponded to half-maximal inhibition (IC50). Also, the MIC in assay [2] and in assay [3] was not above 0.06 µg/mL each time.

The values above are taken from ChEMBL document CHEMBL1137118, “Definition of the heterocyclic pharmacophore of bacterial methionyl tRNA synthetase inhibitors: potent antibacterially active non-quinolone analogues” (Bioorg Med Chem Lett, 2004).
